Reference: patent US8334239B2, “High affinity VEGF-receptor antagonists” (The Board of Regents of the University of Texas System, priority 2007, dated 2012)
“Also recorded” adds a separate entry of the source. Read-outs that look alike come from different tables or passages of the source. Starred links: 1 amine or outer side, 2 acyl side, 3 side chain; linkers in the order of their positions; H or OH if unused. Positions of bridges follow the written chain, without caps; N, C: chain ends. Non-standard residues stand in square brackets, D forms with d. Residues, ends and D or L forms follow the SMILES beside them. Chains are numbered I, II in the order given. *: point of attachment. Fluorescein(5-Mal) = O=C1OC2(c3ccc(O)cc3Oc3cc(O)ccc32)c2ccc(N3C(=O)CC(*)C3=O)cc21; Gly(N-piperonyl) = O=C(O)CNCc1ccc2c(c1)OCO2; X1 = CC(c1ccccc1)N(CC(=O)[*:2])[*:1]; Nrpe = C[C@@H](NCC(=O)O)c1ccccc1; Nleu = CC(C)CNCC(=O)O; Nlys = NCCCCNCC(=O)O; Ahx = NCCCCCC(=O)O; βAla = NCCC(=O)O

Experiments:
[1] = molecular target: T1, CD105 (Homo sapiens, UniProt P17813); test: ELISA-like binding assay on immobilized CD105; conditions: same ELISA-like assay
T1 sequence (P17813 26-658): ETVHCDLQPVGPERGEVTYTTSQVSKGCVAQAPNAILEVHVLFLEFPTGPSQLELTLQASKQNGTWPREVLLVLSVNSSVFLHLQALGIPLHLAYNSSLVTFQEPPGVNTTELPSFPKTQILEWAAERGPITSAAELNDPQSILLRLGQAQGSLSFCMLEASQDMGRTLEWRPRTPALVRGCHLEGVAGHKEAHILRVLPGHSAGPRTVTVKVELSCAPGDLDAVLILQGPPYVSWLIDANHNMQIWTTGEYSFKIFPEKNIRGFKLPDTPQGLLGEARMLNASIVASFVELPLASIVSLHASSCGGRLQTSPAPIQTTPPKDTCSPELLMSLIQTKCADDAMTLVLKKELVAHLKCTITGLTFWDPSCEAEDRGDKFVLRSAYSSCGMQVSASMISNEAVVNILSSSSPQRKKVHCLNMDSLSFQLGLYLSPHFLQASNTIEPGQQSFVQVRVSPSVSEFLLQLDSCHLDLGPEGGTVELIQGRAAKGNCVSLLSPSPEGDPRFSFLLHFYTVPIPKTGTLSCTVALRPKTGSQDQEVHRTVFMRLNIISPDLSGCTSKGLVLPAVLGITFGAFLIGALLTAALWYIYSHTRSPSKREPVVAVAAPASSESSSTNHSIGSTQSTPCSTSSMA

[2] = system: GST; test: ELISA-like binding assay on immobilized GST; conditions: same ELISA-like assay
[3] = system: HUVEC; test: HUVEC tube formation assay; type: cell-based, human; conditions: 1.3 nM VEGF
Procedure: HUVEC tube formation assay. Endothelial cell medium gel (ECM gel) was thawed overnight at 4° C. refrigerator and added 50 μl to each well of pre-chilled white, clear bottom 96-well plate. Incubated for 30 min to facilitate the gel formation. […] 150 μl of these treated cell suspension (20,000 cells) was added per well and incubated at 37° C. and visualized tube formation under the light microscope after 16 hours (10× magnification).

[4] = molecular target: VEGFR2 ECD (Homo sapiens, UniProt P35968); test: Competitive binding assay against fluoresceinated GU40C; conditions: increasing concentrations of unlabelled competitor
Excerpt: FIGS. 17A-B. GU40C truncation study results. (FIG. 17A) Downward arrows show GU40C truncation positions (FIG. 17B) Competitive binding assay results; increasing concentrations of unlabelled GU40C and truncated derivatives were competed with a constant amount of fluoraceinated GU40C. Symbols represent; GU40C (□), 8-mer (▴), 7-mer (▾), 6-mer (⋄), 5-mer (∘), 4-mer (▪), control (x).
To identify the main chain amides important for binding, the inventors synthesized five different truncated versions of GU40C, each containing all four of the N-terminal residues (FIG. 17A). Increasing concentrations of these truncated versions were competed with a constant amount of fluoresceinated GU40C for binding to the VEGR2 ECD. […] Elimination of the first C-terminal residue weakened binding about ten-fold (FIG. 17B). Further elimination of the next three C-terminal residues further diminished binding only slightly. However, deletion of the next residue essentially abolished binding of the peptoid to the VEGFR2 ECD.

[5] = molecular target: T2, VEGFR2 (Homo sapiens, UniProt P35968); test: VEGF-induced VEGFR2 autophosphorylation in PAE/KDR cells, Western blot; type: cell-based; design: allow the library to be screened against the full-length receptor in as natural an environment as possible; host or cells: PAE/KDR (porcine aortic endothelial cells expressing human KDR)
Procedure: Western blots. Experiments were conducted using PAE/KDR cells that were grown on 6-well plates. […] The blots were probed with Phospho-VEGF receptor 2 (Tyr1175) (19A10) rabbit monoclonal or Total VEGFR2 primary antibodies (Cell signaling) and HRP-conjugated secondary antibody (BioRad).
Functional characterization of the VEGFR2-binding peptoids. GU40C and GU40E were then tested for their ability to modulate VEGFR function. Of course, since the screen simply demanded binding of the peptoid to the receptor, it was not a given that this would be the case. […] Western blot analysis using phospho-VEGFR2-specific antibodies was then employed to monitor receptor activation.
To do so, the inventors examined the effect of the peptoid on VEGF-induced VEGFR2 autophosphorylation by Western blotting, as described earlier.
Target sequence in this assay (P35968 20-1356): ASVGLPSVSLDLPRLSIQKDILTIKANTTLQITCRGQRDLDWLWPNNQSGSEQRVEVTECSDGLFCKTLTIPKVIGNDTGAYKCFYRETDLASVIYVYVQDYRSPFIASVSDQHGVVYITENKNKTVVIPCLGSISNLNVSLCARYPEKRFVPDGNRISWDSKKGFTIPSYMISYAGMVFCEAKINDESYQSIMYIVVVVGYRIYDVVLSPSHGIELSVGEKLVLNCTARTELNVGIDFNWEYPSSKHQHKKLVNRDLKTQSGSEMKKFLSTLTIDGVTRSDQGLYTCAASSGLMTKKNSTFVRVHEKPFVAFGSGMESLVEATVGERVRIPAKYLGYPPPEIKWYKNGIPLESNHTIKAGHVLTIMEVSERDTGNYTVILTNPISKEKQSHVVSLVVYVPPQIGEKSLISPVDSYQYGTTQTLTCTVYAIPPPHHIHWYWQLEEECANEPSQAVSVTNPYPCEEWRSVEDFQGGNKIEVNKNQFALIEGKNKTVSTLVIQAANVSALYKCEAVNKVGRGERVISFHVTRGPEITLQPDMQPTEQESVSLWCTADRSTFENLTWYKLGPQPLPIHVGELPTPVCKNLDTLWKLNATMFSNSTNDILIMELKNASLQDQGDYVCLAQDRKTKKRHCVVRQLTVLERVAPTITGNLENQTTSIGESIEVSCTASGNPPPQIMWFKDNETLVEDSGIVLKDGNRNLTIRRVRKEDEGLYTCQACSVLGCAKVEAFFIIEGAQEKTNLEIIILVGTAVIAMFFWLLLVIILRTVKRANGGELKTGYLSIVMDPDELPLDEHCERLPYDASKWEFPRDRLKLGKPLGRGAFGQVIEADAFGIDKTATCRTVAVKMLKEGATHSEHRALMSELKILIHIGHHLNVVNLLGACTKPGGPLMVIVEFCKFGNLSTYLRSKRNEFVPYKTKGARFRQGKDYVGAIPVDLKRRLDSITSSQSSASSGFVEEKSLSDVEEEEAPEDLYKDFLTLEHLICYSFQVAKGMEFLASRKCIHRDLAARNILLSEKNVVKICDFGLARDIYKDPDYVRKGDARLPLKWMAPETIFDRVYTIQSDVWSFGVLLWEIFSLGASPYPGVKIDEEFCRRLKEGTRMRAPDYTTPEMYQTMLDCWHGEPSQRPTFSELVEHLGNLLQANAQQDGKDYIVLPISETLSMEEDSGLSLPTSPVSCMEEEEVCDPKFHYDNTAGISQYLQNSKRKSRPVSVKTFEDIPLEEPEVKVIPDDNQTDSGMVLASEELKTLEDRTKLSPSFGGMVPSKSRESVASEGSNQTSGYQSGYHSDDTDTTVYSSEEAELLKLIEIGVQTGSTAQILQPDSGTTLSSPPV

[6] = molecular target: T2, VEGFR2; test: ELISA-like binding assay, fluoresceinated peptoids on immobilized VEGFR2 extracellular domain; design: VEGFR2 extracellular domain (amino acids 1-764 fused to 6× histidine-tagged Fc of human IgG, via the peptide IEGRMD; R&D Systems); linker peptide IEGRMD (internal); Fc of human IgG (C); 6xHis (C); purchased R&D Systems; conditions: for Kd: ELISA-like assay
Procedure: ELISA based binding assay. White, clear bottom 96-well plates (Corning Inc.) were coated with of 1 μg/ml recombinant human VEGFR2 protein (R&D Systems) using the sensitizing buffer (0.621 g NaHCO3 & 0.275 g Na2CO3 dissolved on 100 ml of ddH2O, pH=9.5) overnight at 4° C. Washed with 3×200 μl of wash buffer 1×PBS with 0.05% Tween-20 and blocked with Startingblock blocking buffer (Pierce). Added 50 μl of serial dilutions of FITC labeled peptoids dissolved in Startingblock blocking buffer to each well & allowed to react for 1 h at room temperature. Washed with 5×200 μl of wash buffer 1×PBS with 0.05% Tween-20 and remaining fluorescence was measured at 520 nm using the plate reader.
The isolated peptoids are VEGFR2 ligands. Two of the ‘hits’ from this screen, GU40C and GU40E (see FIG. 2) were resynthesized, both as free compounds and with C-terminal Cys (for C-terminal fluorescein tagging via maleimide chemistry), cleaved from the beads and purified to apparent homogeneity by reverse phase HPLC. […] The association of these peptoids with VEGFR2 was evaluated using an ELISA-like assay. A commercially available fusion protein containing the VEGFR2 extracellular domain (amino acids 1-764 fused to 6× histidine-tagged Fc of human IgG, via the peptide IEGRMD; R&D Systems) was plated into 96-well plates and then mixed with various concentrations of […] Fluorescein (FITC)-labeled peptoid. After washing away unbound peptoid, the remaining fluorescence emission signal was measured at 520 nm. In this assay purified VEGFR2 protein was used instead of the whole PAE/KDR cells that over express VEGFR2, in order to confirm these compounds were binding only to the receptor.
Target sequence in this assay (P35968 20-764): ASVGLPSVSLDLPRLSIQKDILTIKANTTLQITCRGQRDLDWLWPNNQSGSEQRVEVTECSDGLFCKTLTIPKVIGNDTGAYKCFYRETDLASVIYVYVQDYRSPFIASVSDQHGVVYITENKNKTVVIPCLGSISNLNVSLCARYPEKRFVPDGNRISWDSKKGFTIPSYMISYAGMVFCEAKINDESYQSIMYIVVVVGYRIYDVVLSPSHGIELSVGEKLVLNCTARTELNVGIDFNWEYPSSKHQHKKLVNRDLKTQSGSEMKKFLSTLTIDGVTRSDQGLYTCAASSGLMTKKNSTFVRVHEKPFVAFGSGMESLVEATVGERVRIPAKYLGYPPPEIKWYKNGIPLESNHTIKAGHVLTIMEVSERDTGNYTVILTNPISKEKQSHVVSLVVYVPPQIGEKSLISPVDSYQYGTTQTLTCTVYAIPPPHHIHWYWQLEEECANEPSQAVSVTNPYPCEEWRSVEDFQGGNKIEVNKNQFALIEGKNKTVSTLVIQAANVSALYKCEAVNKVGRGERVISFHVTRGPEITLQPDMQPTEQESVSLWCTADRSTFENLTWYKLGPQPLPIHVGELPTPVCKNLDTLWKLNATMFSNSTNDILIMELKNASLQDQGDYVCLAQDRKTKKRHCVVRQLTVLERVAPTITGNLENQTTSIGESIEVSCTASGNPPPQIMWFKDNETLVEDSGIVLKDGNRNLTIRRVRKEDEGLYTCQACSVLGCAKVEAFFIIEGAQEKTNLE

[7] = system: HUVEC; test: HUVEC proliferation assay; type: cell-based, human; conditions: 1.3 nM VEGF
Procedure: HUVEC proliferation assay. HUVEC cells (ScienceCell) were harvested using enzyme free cell dissociation buffer and resuspended in ECM (5% FBS). Cells were plated (2000 cells/well) on white, clear bottom 96-well plates coated with gelatin. Cells were grown for 24 h at 37° C. […] The treatment was repeated with fresh media (0.2% FBS) and reagents after two days. After four days, viable cells were determined using CellTiter-Glo® Luminescent Cell Viability Assay kit (Promega), and the luminescent signal was read by the plate reader.

[8] = system: A673 (human Ewing's sarcoma) tumors; conditions: mouse, in vivo
Procedure: Cell Culture. The human Ewing's sarcoma cell line A673 (CRL-1598, ATCC, Manassas, Va.) was grown as a monolayer in Dulbeco's minimal essential medium (Invitrogen, Carlsbad, Calif.) supplemented with 10% heat-inactivated fetal calf serum (Atlanta Biologicals, Lawrenceville, Ga.). Cells were maintained at 37° C. in a mixture of 5% CO2 and 95% air. Cell viability was monitored by Trypan Blue (Invitrogen, Carlsbad, Calif.) exclusion after trypsinization. Cell fingerprinting was performed by Dr. Luc Girard at the McDermott Center at UT Southwestern to verify identity of cells and the cells were also tested and found to be negative for Mycoplasma prior to use.
Tumor study. Tumors were established in the right flank of 6-8 week old female athymic nu/nu mice (NCl, Frederick, Md.) by subcutaneous injection of 2.5 million cells in a volume of 50 μl PBS. On the same day, an Alzet subcutaneous pump (DURECT Corporation, Cupertino Calif.) was implanted per manufacturer's recommendations. […] Pumps were weighed empty and again when filled to ensure correct loading. Based on the mean pumping rate (0.2 μl/hr), these pumps were predicted to elute for 21 days. Implantation of the pump was performed by making a small incision on the back of the anesthetized animal and subsequently using a hemostat to create a subcutaneous pocket in which to place the pump. The incision was closed with a 5-0 prolene (Ethicon, Somerville, N.J.). Animal weights and tumor volumes (calipers) were recorded twice weekly. Volumes were calculated using the formula D*d^2*0.52 where D is the long diameter and d is the perpendicular short diameter.
Immunohistochemistry. Formalin-fixed tissues were embedded in paraffin, sectioned and stained with hematoxylin and eosin by the Molecular Histopathology Laboratory at UT Southwestern. H&E photographs were taken at a total magnification of 40× on a Nikon DXM 1200 digital camera (Melville, N.Y.). For immunohistochemical staining, slides were deparaffinized by heating at 60° C. for one hour followed by immersion in xylenes. Tissue was rehydrated by sequential immersion in ethanols. Endogenous peroxidase activity was blocked with 3% H2O2 in methanol. Antigen retrieval was performed using pH 6.0 citrate buffer (LabVision, Freemont, Calif.) for 15 minutes in a pressure cooker. […] The primary antibody was detected by incubating with a biotinylated donkey anti-rat IgG (Jackson ImmunoResearch, Westgrove, Pa.) followed by the ABC detection kit (Vector laboratories, Burlingame, Calif.). […] Microvessel density (MVD) was determined by manually counting the number of blood vessels in visible in the microscopic field of view (total magnification, 100×). […]

[9] = molecular target: T2, VEGFR2; test: GU40C4 cell surface binding assay (biotinylated peptoid, streptavidin quantum dots); type: cell-based; design: allow the library to be screened against the full-length receptor in as natural an environment as possible; host or cells: PAE/KDR (porcine aortic endothelial cells expressing human KDR); conditions: for binding to cells with or without native VEGFR2: HeLa, HEK-293, HFF, MCF-7, only MCF-7 expresses VEGFR2
Procedure: Different types of cells (PAE/KDR, PAE, Hela, HEK-293, MCF-7, HFF) were grown on each well of chamber slides (Nalge Nunc International) (10,000 cells/chamber) overnight. Washed, and fixed cells with 3.7% formaldehyde and blocked with Startingblock blocking buffer. […] After the final washing, cells were mounted by ProLong® Gold antifade reagent with DAPI (Invitrogen) and visualized under DAPI filter of the fluorescence microscope.
Specificity of the GU40C4-VEGFR2 interaction on the cell surface. […] The DAPI-stained nuclei are shown in blue. […] In addition, the red halo was not observed when the VEGFR2-expressing PAE/KDR cells were incubated with only the streptavidin-coated red quantum dots without addition of the biotinylated peptoid (FIG. 5C).
An important question is whether the peptoid is able to recognize VEGFR2 on the surface of cells when the receptor is expressed at native levels. To address this question, the inventors incubated biotinylated CU40C4 and streptavidin-coated red quantum dots with four different cell lines: HeLa, HEK-293, human foreskin fibroblast (HFF) and MCF-7. Of these, only MCF-7 expresses significant quantities of the VEGFR2. […] The inventors conclude from these experiments that the dimeric peptoid is highly specific for the VEGFR2 and can recognize the receptor even when it is expressed at native levels on the surface of a breast cancer cell.
Target sequence in this assay (P35968 20-1356): as the sequence (P35968 20-1356) above

VEGFR2 ECD, sequence (P35968 20-764 limits assumed): as the sequence (P35968 20-764) above

SMILES: CC(C)CN(CC(=O)N(CCCCN)CC(=O)N(CC(=O)N(CC(=O)N(CCCCN)CC(=O)N(CC(=O)N(CCCCN)CC(=O)N(CCCCN)CC(=O)O)CC(C)C)Cc1ccc2c(c1)OCO2)C(C)c1ccccc1)C(=O)CNCCCCN (stereo not drawn) [GU40C, Nlys-Nleu-Nlys-Nmba-Npip-Nlys-Nleu-Nlys-Nlys] (H-[Nlys][Nleu][Nlys][X1][Gly(N-piperonyl)][Nlys][Nleu][Nlys][Nlys]-OH)
- binding to CD105 [1]: did not bind detectably
- binding to GST [2]: did not bind detectably
- effect on VEGF-induced HUVEC tube formation ([3]; 10 μM): slight effect; also recorded: small effect
- competition with fluoresceinated GU40C for binding to VEGFR2 ECD [4]: competed efficiently
- agonist activity on VEGFR2 phosphorylation ([5]; PAE/KDR cells, Western blot): Neither peptoid at any concentration tested evinced agonist activity; also recorded: None of the peptoids exhibited agonist activity
- effect on VEGF-induced VEGFR2 phosphorylation (in words) ([5]; monomeric peptoids, 500 μM, 1.3 nM VEGF): weak antagonists
- inhibition of VEGFR2 phosphorylation ([5]; peptoid 500 μM, 1.3 nM VEGF, PAE/KDR cells): approximately 75%
- Kd ([6]; immobilized VEGFR2 extracellular domain, read-out: KD): 2.85 ± 0.4 µM
- Kd ([6]; read-out: dissociation constant (KD)): ~2 µM
- binding to VEGFR2 ECD (in words) ([6]; ELISA-like binding assay): able to display binding
- binding after pre-incubation of immobilized receptor with unlabeled VEGF ([6]; fluoresceinated peptoid): almost no binding

SMILES: CC(C)CN(CC(=O)N(CCCCN)CC(=O)N(CC(=O)N(CC(=O)N(CCCCN)CC(=O)N(CC(=O)N(CCCCN)CC(=O)N(CCCCN)CC(=O)NCCCCCC(=O)NCCC(=O)N[C@@H](CCCCNC(=O)CN(CCCCN)C(=O)CN(CCCCN)C(=O)CN(CC(C)C)C(=O)CN(CCCCN)C(=O)CN(Cc1ccc2c(c1)OCO2)C(=O)CN(C(=O)CN(CCCCN)C(=O)CN(CC(C)C)C(=O)CNCCCCN)[C@H](C)c1ccccc1)C(=O)N[C@@H](CSC1CC(=O)N(c2ccc3c(c2)C(=O)OC32c3ccc(O)cc3Oc3cc(O)ccc32)C1=O)C(N)=O)CC(C)C)Cc1ccc2c(c1)OCO2)[C@H](C)c1ccccc1)C(=O)CNCCCCN (stereo partly drawn) [GU40C4] (I: H-[Nlys][Nleu][Nlys][Nrpe][Gly(N-piperonyl)][Nlys][Nleu][Nlys][Nlys][Ahx][βAla]KC(Fluorescein(5-Mal))-NH2 / II: H-[Nlys][Nleu][Nlys][Nrpe][Gly(N-piperonyl)][Nlys][Nleu][Nlys][Nlys]; amide I:12-II:C)
- IC50 ([7]; 4 days, read-out: IC50 of VEGF-induced HUVEC proliferation): ~1 µM
- inhibition of HUVEC proliferation (in words) ([7]; 1 μM): halfway
- inhibition of HUVEC proliferation (in words) ([7]; 10 μM): reduced to essentially basal levels; also recorded: almost to the basal level
- effect on VEGF-induced HUVEC tube formation ([3]; 1 μM and 10 μM): Clear evidence of the inhibition of tube formation; also recorded: able to disrupt HUVEC tube formation; also recorded: disrupted HUVEC tube formation
- adverse effects of treatment [8]: no adverse effects
- time after cessation of therapy until tumors grow at a rate similar to control [8]: 3 to 4 days
- tumor necrosis (H&E histology) [8]: induced significant tumor necrosis
- tumor size [8]: approximately 200 mm^3
- binding signal on PAE/KDR cells with competitor ([9]; 100-fold excess unlabeled GU40C4): disappeared completely
- binding to cells with or without native VEGFR2 [9]: did not associate detectably with cells that lacked VEGFR2
- binding to cells with or without native VEGFR2 ([9]; listed as CU40C4): red halo was observed only when the peptoid was incubated with the MCF-7 cells
- binding to PAE parental cells ([9]; cells lacking the VEGFR2 expression vector): did not bind detectably
- improvement of antagonism over the monomeric parent compound [5]: 100- to 500 fold
